This is an account of results in patent US10806741B2, “Treatments for free-living amoebic infections” (Profounda, Inc., priority 2018, dated 2020).

Series [1] in a line: solubility of miltefosine. The series is classed as physicochemical. The source says:
The chemical name of miltefosine is 2-[[(hexadecyloxy)hydroxyphosphenyl]oxy]-N,N,N-trimethylethylammonium inner salt, also known as hexadecylphosphocholine, represented by the formula (I). The empirical formula is C21H46NO4P, yielding a molecular weight of 407.57 g/mol.
Thus, according to certain aspects of the presently disclosed invention, the miltefosine may be administered as an oral formulation that is a liquid, such as included in a liquid capsule that may be swallowed, or as a formulation that a patient may drink. The miltefosine may be applied directly to body tissues such as skin or cornea. Alternatively, the miltefosine may be formulated as a solution that may be administered intravenously, such as formulated in a sterile saline solution.

The test system of series [2] is Acanthamoeba. In words: patients with Acanthamoeba keratitis treated with systemically administered (oral) miltefosine. The series is classed as in vivo, human. The source says: Such infections have typically been hard to treat as the standard topical treatments generally don't permeate through the various tissue layers to the cysts of the amoeba. […] Previous treatment protocols for Acanthamoeba keratitis have only included topically applied agents such as biocides, and it is not clear from reported results whether cyst reduction was present at the end of these treatment protocols. Moreover, prior to 1996, every patient diagnosed with Acanthamoeba keratitis eventually lost the infected eye.
Since AK is commonly misdiagnosed, the stage of the disease when it is successfully identified varies greatly. […] A major advantage of the presently disclosed methods is that such patients could receive steroids after surgery while also receiving either or both of the systemic and topical formulations of miltefosine, and optional additional second agents.
Medication was discontinued for one week, during which time the patient experienced renewed symptoms.

Series [3] concerns Acanthamoeba. Conditions: topical administration, 160 μM, 28 days treatment; hamsters exposed to Acanthamoeba for 5 days; cited from earlier work.
In series [4] the test system is Naegleria fowleri. The note with it: Mexico, Arkansas, and Florida patients; cited from earlier work.
In series [5] the test system is Naegleria fowleri. Conditions: Naegleria fowleri in the laboratory; cited from earlier work.
For series [6] the following is noted: in vivo; cited from earlier work.

For “2-[[(hexadecyloxy)hydroxyphosphenyl]oxy]-N,N,N-trimethylethylammonium inner salt [miltefosine]”, the solubility result in series [1] (aqueous solutions) is listed as “freely soluble”; in series [1] (water, 0.1 N HCl or NaOH, methanol, and ethanol), “freely soluble”. In addition, the “efficacy against Acanthamoeba keratitis, active feeding amoeba and cysts in the eyes” value in series [2] (oral formulation, over eighty patients, more than a third treated for at least two months) is “effective to treat Acanthamoeba keratitis and was able to kill both active feeding amoeba and cysts in the eyes”. For the same substance, the “outcome of case study (AK infection)” value in series [2] (patient, oral 50 mg TID just over a month, then 50 mg BID for an additional two months, with short course of oral steroids) is reported as “clear the AK infection”. Further, the “complete cure of hamsters” value in series [3] was 85%. Further, the “survival of PAM patients” value in series [4] is on record as “survived”. Also, the amoeba-killing activity entry in series [5] is reported as “amoeba-killing activity”. Also, the half-life entry in series [6] is given as “long half-life”.
